Measured values published in the supplement of paper PMC10307832.

Columns and labels:
Experiment in all cases: relative viability (nuclei count vs DMSO), 5 days (fraction); higher = more cells survive
[1] = compound: COc1cc2ncn(-c3cc(OCc4ccccc4C(F)(F)F)c(C(N)=O)s3)c2cc1OC + O=C(CCCCCCC(=O)Nc1ccccc1)NO [Vorinostat] (partner 1 µM)
Method in brief: (§1)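 Lung cancer cell lines in 1536-well plates were dosed by pin tool the day after seeding, either with one drug alone or with a fixed anchor-drug dose plus five library-drug doses (not always all listed) in √10 steps. After 5 days, cells were fixed and their nuclei stained in one step (final 0.05% Triton X-100, 1% formaldehyde, 1 ug/ml Hoechst), then counted on 4× images. Relative viability is the nuclei count in treated wells divided by that in vehicle wells. Values are medians of duplicate plates.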

[2] = compound: COc1cc2ncn(-c3cc(OCc4ccccc4C(F)(F)F)c(C(N)=O)s3)c2cc1OC + Nc1nc2[nH]cc(CCc3ccc(C(=O)N[C@@H](CCC(=O)O)C(=O)O)cc3)c2c(=O)[nH]1 [Pemetrexed] (partner 0.2 µM)
Method in brief: as §1

[3] = compound: COc1cc2ncn(-c3cc(OCc4ccccc4C(F)(F)F)c(C(N)=O)s3)c2cc1OC + Cc1nc(Nc2ncc(C(=O)Nc3c(C)cccc3Cl)s2)cc(N2CCN(CCO)CC2)n1 [Dasatinib] (partner 0.075 µM)
Method in brief: as §1

[4] = compound: COc1cc2ncn(-c3cc(OCc4ccccc4C(F)(F)F)c(C(N)=O)s3)c2cc1OC + CC(=O)c1c(C)c2cnc(Nc3ccc(N4CCNCC4)cn3)nc2n(C2CCCC2)c1=O [Palbociclib] (partner 0.5 µM)
Method in brief: as §1

Row | Cell Line | relative viability ([1]; first compound 0.05 µM) | relative viability ([1]; first compound 0.1581 µM) | relative viability ([1]; first compound 0.5 µM) | relative viability ([1]; first compound 1.581 µM) | relative viability ([1]; first compound 5 µM) | relative viability ([2]; first compound 0.05 µM) | relative viability ([2]; first compound 0.1581 µM) | relative viability ([2]; first compound 0.5 µM) | relative viability ([2]; first compound 1.581 µM) | relative viability ([2]; first compound 5 µM) | relative viability ([3]; first compound 0.05 µM) | relative viability ([3]; first compound 0.1581 µM) | relative viability ([3]; first compound 0.5 µM) | relative viability ([3]; first compound 1.581 µM) | relative viability ([3]; first compound 5 µM) | relative viability ([4]; first compound 0.05 µM) | relative viability ([4]; first compound 0.1581 µM) | relative viability ([4]; first compound 0.5 µM) | relative viability ([4]; first compound 1.581 µM) | relative viability ([4]; first compound 5 µM)
1 | NCI-H441 | 0.446 | 0.827 | 0.195 | 0.174 | 0.19 | 0.248 | 0.27 | 0.189 | 0.148 | 0.158 | 0.573 | 0.538 | 0.265 | 0.174 | 0.168 | 0.243 | 0.255 | 0.172 | 0.125 | 0.147
2 | NCI-H460 | 0.745 | 0.723 | 0.0471 | 0.0166 | 0.0169 | 0.0574 | 0.0651 | 0.0638 | 0.0225 | 0.0159 | 0.593 | 0.636 | 0.283 | 0.0166 | 0.0348 | 0.185 | 0.172 | 0.173 | 0.0095 | 0.0133
3 | NCI-H520 | 0.343 | 0.621 | 0.215 | 0.179 | 0.183 | 0.301 | 0.663 | 0.247 | 0.204 | 0.171 | 0.239 | 0.202 | 0.157 | 0.191 | 0.193 | 0.149 | 0.253 | 0.179 | 0.155 | 0.121
4 | NCI-H522 | 0.962 | 1.1 | 0.733 | 0.292 | 0.237 | 0.965 | 0.842 | 0.742 | 0.812 | 0.377 | 0.937 | 0.846 | 0.814 | 0.628 | 0.369 | 0.886 | 0.866 | 0.842 | 1.01 | 0.401
5 | NCI-H647 | 0.326 | 0.489 | 0.113 | 0.0523 | 0.0497 | 0.179 | 0.176 | 0.0943 | 0.06 | 0.0757 | 0.216 | 0.144 | 0.0412 | 0.0467 | 0.0528 | 0.436 | 0.39 | 0.174 | 0.0732 | 0.077
6 | NCI-H650 | 0.425 | 0.438 | 0.279 | 0.137 | 0.143 | 1.01 | 0.923 | 0.768 | 0.261 | 0.458 | 0.468 | 0.429 | 0.32 | 0.166 | 0.261 | 0.301 | 0.335 | 0.279 | 0.188 | 0.34
7 | NCI-H661 | 0.843 | 0.753 | 0.293 | 0.269 | 0.223 | 0.989 | 0.819 | 0.482 | 0.303 | 0.269 | 0.986 | 0.779 | 0.312 | 0.293 | 0.171 | 0.441 | 0.428 | 0.335 | 0.248 | 0.241
8 | NCI-H838 | 0.577 | 0.801 | 0.477 | 0.13 | 0.132 | 0.216 | 0.278 | 0.221 | 0.143 | 0.114 | 0.302 | 0.291 | 0.224 | 0.255 | 0.156 | 0.255 | 0.231 | 0.161 | 0.111 | 0.0913
9 | NCI-H1355 | 0.592 | 0.624 | 0.457 | 0.154 | 0.13 | 1.12 | 0.924 | 0.88 | 0.223 | 0.141 | 0.707 | 0.739 | 0.491 | 0.163 | 0.143 | 0.271 | 0.423 | 0.345 | 0.186 | 0.152
10 | NCI-H1395 | 0.711 | 0.688 | 0.466 | 0.354 | 0.25 | 0.761 | 0.828 | 0.663 | 0.395 | 0.27 | 0.413 | 0.438 | 0.455 | 0.358 | 0.306 | 0.614 | 0.763 | 0.507 | 0.377 | 0.28
11 | NCI-H1437 | 0.717 | 0.779 | 0.367 | 0.334 | 0.326 | 0.317 | 0.32 | 0.221 | 0.232 | 0.179 | 0.412 | 0.356 | 0.322 | 0.162 | 0.104 | 0.3 | 0.279 | 0.253 | 0.206 | 0.192
12 | NCI-H1650 | 0.484 | 0.555 | 0.36 | 0.154 | 0.133 | 0.421 | 0.36 | 0.333 | 0.217 | 0.207 | 0.329 | 0.305 | 0.268 | 0.142 | 0.145 | 0.295 | 0.329 | 0.234 | 0.146 | 0.141
13 | NCI-H1651 | 0.504 | 0.51 | 0.309 | 0.164 | 0.324 | 0.636 | 0.578 | 0.468 | 0.402 | 0.326 | 0.403 | 0.39 | 0.198 | 0.0914 | 0.0837 | 0.535 | 0.492 | 0.481 | 0.484 | 0.397
14 | NCI-H1666 | 0.954 | 0.998 | 0.584 | 0.561 | 0.527 | 0.827 | 0.83 | 0.651 | 0.52 | 0.447 | 0.825 | 0.758 | 0.518 | 0.316 | 0.271 | 0.631 | 0.637 | 0.597 | 0.414 | 0.445
15 | NCI-H1734 | 0.776 | 0.902 | 0.365 | 0.202 | 0.137 | 0.401 | 0.386 | 0.41 | 0.25 | 0.164 | 0.477 | 0.516 | 0.387 | 0.197 | 0.129 | 0.315 | 0.334 | 0.325 | 0.203 | 0.171
16 | NCI-H1755 | 0.781 | 0.738 | 0.631 | 0.447 | 0.354 | 0.43 | 0.434 | 0.426 | 0.299 | 0.286 | 0.445 | 0.402 | 0.315 | 0.222 | 0.207 | 0.452 | 0.442 | 0.429 | 0.316 | 0.328
